According to patent publication EP1247803A2, “Indolinone compounds suitable for modulation of protein kinases” (Sugen, Inc., priority 1996, dated 1998):

How the values were obtained:
[1] = molecular target: T1, FLK-1 receptor (Mus musculus, UniProt P35918); assay: FLK-1 ELISA (kinase activity of the FLK-1 receptor in FLK-1/NIH3T3 cells, VEGF stimulated); type: cell-based
T1 construct: expressed in transfected cells; host or cells: NIH3T3 C7#3
How it was run: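 FLK-1-expressing NIH3T3 C7#3 cells, starved overnight in 0.1% FBS medium, were treated with compounds at a 1:200 final dilution (0.5% DMSO) for 2 h at 37 °C, with VEGF stimulation. FLK-1 kinase activity was read by ELISA on anti-rabbit IgG plates using affinity-purified anti-FLK-1 antiserum.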

[2] = test system: MET; assay: MET biochemical kinase assay; set-up: species or system human; concentration or dose not given beside the values
How it was run: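 Human MET was captured from cell lysates onto ELISA plates via goat anti-rabbit Fc and rabbit polyclonal antibody to the MET cytoplasmic domain. After washing, test compounds and kinase buffer with ATP and divalent metal ions were added. Phosphotyrosine was detected with HRP-conjugated anti-phosphotyrosine antibody and TMB colorimetric read-out.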

[3] = molecular target: PDGF-R (Homo sapiens, UniProt P09619); assay: PDGF-R ELISA; type: cell-based
Description: A PDGF-R ELISA is described in International Patent Publication No. WO 96/40116, published December 19, 1996 by Tang et al.

T1 sequence (P35918 20-1345): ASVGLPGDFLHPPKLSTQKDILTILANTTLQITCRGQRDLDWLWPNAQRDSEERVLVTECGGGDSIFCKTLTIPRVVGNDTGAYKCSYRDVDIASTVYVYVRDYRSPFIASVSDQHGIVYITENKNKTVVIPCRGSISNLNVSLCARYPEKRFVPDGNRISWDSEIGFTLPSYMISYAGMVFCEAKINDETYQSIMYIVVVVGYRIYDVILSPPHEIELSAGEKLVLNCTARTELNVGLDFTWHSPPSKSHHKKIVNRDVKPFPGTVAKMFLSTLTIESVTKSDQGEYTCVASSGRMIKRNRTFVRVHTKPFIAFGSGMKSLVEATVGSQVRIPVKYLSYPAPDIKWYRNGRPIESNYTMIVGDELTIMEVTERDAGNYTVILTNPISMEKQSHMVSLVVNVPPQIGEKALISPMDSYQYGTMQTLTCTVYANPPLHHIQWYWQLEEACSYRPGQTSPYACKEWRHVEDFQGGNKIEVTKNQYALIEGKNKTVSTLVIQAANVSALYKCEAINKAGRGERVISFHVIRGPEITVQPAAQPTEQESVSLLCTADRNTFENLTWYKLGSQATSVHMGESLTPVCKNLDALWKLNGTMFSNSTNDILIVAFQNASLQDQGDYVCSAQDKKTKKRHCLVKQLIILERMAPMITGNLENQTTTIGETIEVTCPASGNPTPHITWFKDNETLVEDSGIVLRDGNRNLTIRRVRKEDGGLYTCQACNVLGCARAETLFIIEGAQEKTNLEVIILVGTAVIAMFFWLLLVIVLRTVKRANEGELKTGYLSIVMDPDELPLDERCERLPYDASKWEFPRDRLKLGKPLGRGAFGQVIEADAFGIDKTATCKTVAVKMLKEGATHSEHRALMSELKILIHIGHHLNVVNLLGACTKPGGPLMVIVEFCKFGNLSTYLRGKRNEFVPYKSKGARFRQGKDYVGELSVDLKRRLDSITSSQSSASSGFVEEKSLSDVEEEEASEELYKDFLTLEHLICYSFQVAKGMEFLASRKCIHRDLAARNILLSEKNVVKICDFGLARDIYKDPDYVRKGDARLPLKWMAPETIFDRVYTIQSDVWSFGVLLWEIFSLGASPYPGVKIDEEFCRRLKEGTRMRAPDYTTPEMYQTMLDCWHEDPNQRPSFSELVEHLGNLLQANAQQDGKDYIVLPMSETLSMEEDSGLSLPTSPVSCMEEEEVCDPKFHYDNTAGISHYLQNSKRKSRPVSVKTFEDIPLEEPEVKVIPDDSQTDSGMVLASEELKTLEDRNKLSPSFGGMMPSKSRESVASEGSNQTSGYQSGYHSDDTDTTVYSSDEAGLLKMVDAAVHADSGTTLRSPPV
Chain of PDGF-R (P09619 33-1106, species assumed): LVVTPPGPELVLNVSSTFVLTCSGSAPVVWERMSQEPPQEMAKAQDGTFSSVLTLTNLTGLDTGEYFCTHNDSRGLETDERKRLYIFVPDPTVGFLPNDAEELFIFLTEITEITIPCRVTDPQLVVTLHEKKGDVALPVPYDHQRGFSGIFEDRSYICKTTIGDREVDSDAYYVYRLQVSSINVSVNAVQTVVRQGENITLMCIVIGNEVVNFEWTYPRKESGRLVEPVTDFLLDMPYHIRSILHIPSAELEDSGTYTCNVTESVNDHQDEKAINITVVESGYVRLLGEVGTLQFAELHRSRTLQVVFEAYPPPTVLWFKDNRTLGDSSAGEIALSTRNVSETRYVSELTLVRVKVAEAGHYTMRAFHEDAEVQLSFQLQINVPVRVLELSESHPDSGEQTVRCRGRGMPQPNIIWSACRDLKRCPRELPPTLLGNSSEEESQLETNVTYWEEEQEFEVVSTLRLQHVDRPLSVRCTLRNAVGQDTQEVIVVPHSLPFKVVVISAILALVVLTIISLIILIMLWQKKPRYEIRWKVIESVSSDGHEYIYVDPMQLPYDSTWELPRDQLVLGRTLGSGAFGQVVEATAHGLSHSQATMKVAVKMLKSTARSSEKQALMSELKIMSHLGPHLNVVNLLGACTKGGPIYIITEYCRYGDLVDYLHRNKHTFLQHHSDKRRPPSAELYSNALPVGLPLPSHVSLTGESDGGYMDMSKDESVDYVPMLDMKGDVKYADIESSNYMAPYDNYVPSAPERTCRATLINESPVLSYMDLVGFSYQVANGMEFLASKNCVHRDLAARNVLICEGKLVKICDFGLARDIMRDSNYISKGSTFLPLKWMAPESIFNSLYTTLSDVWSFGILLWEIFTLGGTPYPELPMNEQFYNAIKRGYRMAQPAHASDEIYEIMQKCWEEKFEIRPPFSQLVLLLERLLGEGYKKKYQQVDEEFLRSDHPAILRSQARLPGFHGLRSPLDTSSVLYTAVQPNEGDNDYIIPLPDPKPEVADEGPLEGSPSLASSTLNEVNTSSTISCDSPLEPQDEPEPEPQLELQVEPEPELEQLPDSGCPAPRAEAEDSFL

| SMILES | Fik Kinase %Inhibition [1] [%] | Met Kinase % Inhibition [2] [%] | PDGF Kinase %Inhibition [3] [%] |
| --- | --- | --- | --- |
| Cc1[nH]c(C=C2C(=O)Nc3c(Br)cc(Br)cc32)c(Br)c1Br [10717/A11] | -5.8 | 64.8 |  |
| O=C1Nc2ccc(S(=O)(=O)Nc3ccc(C(F)(F)F)cc3)cc2C1=Cc1ccc2ccccc2c1O [10718/E04] | 15.1 | 87.7 |  |
| CCOC(=O)CCc1c(C(=O)OCC)[nH]c(C=C2C(=O)Nc3ccc(S(=O)(=O)Nc4ccc(C(F)(F)F)cc4)cc32)c1CC(=O)OCC [10718/E05] | 16.1 | 32.2 |  |
| CCOC(=O)c1cc(C=C2C(=O)Nc3ccc(S(=O)(=O)Nc4ccc(C(F)(F)F)cc4)cc32)oc1C [10718/E06] | 15.4 | 33.4 |  |
| COC(=O)c1[nH]c(C)c(C=C2C(=O)Nc3ccc(S(=O)(=O)Nc4ccc(C(F)(F)F)cc4)cc32)c1C(=O)OC [10718/E07] | 15.6 | 80.5 |  |
| O=C1Nc2ccc(S(=O)(=O)Nc3ccc(C(F)(F)F)cc3)cc2C1=Cc1ccc(Cl)c([N+](=O)[O-])c1 [10718/E08] | 9.2 | 69.6 |  |
| Cc1c(O)ccc(C=C2C(=O)Nc3ccc(S(=O)(=O)Nc4ccc(C(F)(F)F)cc4)cc32)c1O [10718/E09] | 0.9 | 80.8 |  |
| O=C1Nc2ccc(S(=O)(=O)Nc3ccc(C(F)(F)F)cc3)cc2C1=Cc1ccco1 [10718/E10] | 15.2 | 60.8 |  |
| O=C1Nc2ccc(S(=O)(=O)Nc3ccc(C(F)(F)F)cc3)cc2C1=Cc1ccc([N+](=O)[O-])o1 [10718/E11] | 12.1 | 37.5 |  |
| COc1c([N+](=O)[O-])cc(C=C2C(=O)Nc3ccc(S(=O)(=O)Nc4ccc(C(F)(F)F)cc4)cc32)cc1C(C)(C)C [10733/E03] | 42.6 | 26.8 | 43.1 |
| COc1c(C(C)(C)C)cc(C=C2C(=O)Nc3ccc(S(=O)(=O)Nc4ccc(C(F)(F)F)cc4)cc32)cc1C(C)(C)C [10733/E04] | 2.1 | 17.5 | -13.7 |
| CC(C)(C)c1cc(C=C2C(=O)Nc3ccc(S(=O)(=O)Nc4ccc(C(F)(F)F)cc4)cc32)cc(C(C)(C)C)c1OCc1ccccc1 [10733/E05] | 10.6 | 2.9 | -33.2 |
| COc1c(C)cc(C=C2C(=O)Nc3ccc(S(=O)(=O)Nc4ccc(C(F)(F)F)cc4)cc32)cc1C [10733/E06] | 13.5 | 10.4 | 22.4 |
| Cc1cc(C=C2C(=O)Nc3ccc(S(=O)(=O)Nc4ccc(C(F)(F)F)cc4)cc32)cc(C)c1OCc1ccccc1 [10733/E07] | 13.2 | -10.1 | 29.3 |
| COc1cc(Br)cc(C=C2C(=O)Nc3ccc(S(=O)(=O)Nc4ccc(C(F)(F)F)cc4)cc32)c1O [10733/E08] | -5.1 | 81.1 | 75.2 |
| O=C1Nc2ccc(S(=O)(=O)Nc3ccc(C(F)(F)F)cc3)cc2C1=Cc1cc(Br)ccc1O [10733/E09] | 13.4 | 62.6 | 35.8 |
| O=C1Nc2ccc(S(=O)(=O)Nc3ccc(C(F)(F)F)cc3)cc2C1=Cc1cc([N+](=O)[O-])ccc1O [10733/E10] | 5.5 | 52.8 | 10.3 |
| COc1c(O)ccc(C=C2C(=O)Nc3ccc(S(=O)(=O)Nc4ccc(C(F)(F)F)cc4)cc32)c1[N+](=O)[O-] [10733/E11] | 5.5 | 71.8 | 15.9 |
| CC(C)(C)c1cc(C=C2C(=O)Nc3ccc(S(=O)(=O)N4CCOCC4)cc32)cc(I)c1OCc1ccccc1 [10733/F02] | -15.7 | 71.6 | 3.8 |
| COc1c([N+](=O)[O-])cc(C=C2C(=O)Nc3ccc(S(=O)(=O)N4CCOCC4)cc32)cc1C(C)(C)C [10733/F03] | 17.5 | 24.2 | 24.5 |
| COc1c(C(C)(C)C)cc(C=C2C(=O)Nc3ccc(S(=O)(=O)N4CCOCC4)cc32)cc1C(C)(C)C [10733/F04] | 21.4 | 65.1 | -28.7 |
| CC(C)(C)c1cc(C=C2C(=O)Nc3ccc(S(=O)(=O)N4CCOCC4)cc32)cc(C(C)(C)C)c1OCc1ccccc1 [10733/F05] | 26.2 | 65.1 | -25.1 |
| COc1c(C)cc(C=C2C(=O)Nc3ccc(S(=O)(=O)N4CCOCC4)cc32)cc1C [10733/F06] | 19.3 | 20.9 | -4.8 |

| SMILES | Fik Kinase %Inhibition [1] [%] | Met Kinase % Inhibition [2] [%] | PDGF Kinase %Inhibition [3] [%] |
| --- | --- | --- | --- |
| Cc1cc(C=C2C(=O)Nc3ccc(S(=O)(=O)N4CCOCC4)cc32)cc(C)c1OCc1ccccc1 [10733/F07] | 16.4 | -16.4 | 1.7 |
| COc1cc(Br)cc(C=C2C(=O)Nc3ccc(S(=O)(=O)N4CCOCC4)cc32)c1O [10733/F08] | -13.2 | 66.6 | -32.4 |
| O=C1Nc2ccc(S(=O)(=O)N3CCOCC3)cc2C1=Cc1cc(Br)ccc1O [10733/F09] | -2.1 | 52.8 | -0.3 |
| O=C1Nc2ccc(S(=O)(=O)N3CCOCC3)cc2C1=Cc1cc([N+](=O)[O-])ccc1O [10733/F10] | 8.5 | 24.4 | -5.6 |
| COc1c(O)ccc(C=C2C(=O)Nc3ccc(S(=O)(=O)N4CCOCC4)cc32)c1[N+](=O)[O-] [10733/F11] | 4.1 | 44.4 | -17.8 |
| CC(C)(C)c1cc(C=C2C(=O)Nc3ccc(CCCl)cc32)cc(I)c1OCc1ccccc1 [10733/G02] | 8.3 | 64.5 | -7.6 |
| COc1c([N+](=O)[O-])cc(C=C2C(=O)Nc3ccc(CCCl)cc32)cc1C(C)(C)C [10733/G03] | 24.7 | 30.5 | 12.7 |
| COc1c(C(C)(C)C)cc(C=C2C(=O)Nc3ccc(CCCl)cc32)cc1C(C)(C)C [10733/G04] | 11.5 | 20.3 | 11.9 |
| CC(C)(C)c1cc(C=C2C(=O)Nc3ccc(CCCl)cc32)cc(C(C)(C)C)c1OCc1ccccc1 [10733/G05] | 19.2 | 1.8 | -1.1 |
| COc1c(C)cc(C=C2C(=O)Nc3ccc(CCCl)cc32)cc1C [10733/G06] | 37.0 | 0.8 | 0.1 |
| Cc1cc(C=C2C(=O)Nc3ccc(CCCl)cc32)cc(C)c1OCc1ccccc1 [10733/G07] | 19.5 | 8.5 | -6.8 |
| COc1cc(Br)cc(C=C2C(=O)Nc3ccc(CCCl)cc32)c1O [10733/G08] | 2.5 | 79.0 | 68.7 |
| O=C1Nc2ccc(CCCl)cc2C1=Cc1cc(Br)ccc1O [10733/G09] | 77.8 | 41.4 | -17.0 |
| O=C1Nc2ccc(CCCl)cc2C1=Cc1cc([N+](=O)[O-])ccc1O [10733/G10] | 12.7 | 41.9 | -58.0 |
| COc1c(O)ccc(C=C2C(=O)Nc3ccc(CCCl)cc32)c1[N+](=O)[O-] [10733/G11] | 3.3 | 32.6 | -4.4 |
| CCOc1cccc(C=C2C(=O)Nc3c(Br)cc(Br)cc32)c1O [10734/A02] | 4.1 | 51.1 | -3.8 |
| O=C1Nc2c(Br)cc(Br)cc2C1=Cc1cc(Cl)cc(Cl)c1O [10734/A03] | 10.1 | 87.8 | 22.3 |
| O=C1Nc2c(Br)cc(Br)cc2C1=Cc1cc(Cl)ccc1O [10734/A04] | 0.6 | 68.0 | 11.7 |
| CCN(CC)c1ccc(C=C2C(=O)Nc3c(Br)cc(Br)cc32)c(O)c1 [10734/A05] | 9.1 | 69.9 | 2.9 |
| O=C1Nc2c(Br)cc(Br)cc2C1=Cc1ccc([N+](=O)[O-])cc1 [10734/A06] | -6.4 | 46.9 | -9.9 |
| O=C1Nc2c(Br)cc(Br)cc2C1=Cc1cc(Br)cc(Br)c1O [10734/A07] | -9.4 | 89.3 | 21.9 |
| O=C1Nc2c(Br)cc(Br)cc2C1=Cc1cccc(F)c1O [10734/A08] | 0.1 | 71.5 | 9.1 |
